# From the supplement of paper PMC11061612
# Columns and labels:
# Test in all cases: Bliss excess, mean over the matrix (fraction); higher = more synergy
# [1] = test system: 5637 (Bladder Carcinoma)
# In short: (§1)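 Bliss excess equals the observed combination effect minus the expected value EA + EB − EA·EB, where EA and EB are the effects of each agent alone. Combination Emax is the second-highest inhibition within the matrix. Inhibition was scaled from CellTiter-Glo 2.0 luminescence, with 0 set by vehicle wells and 1 by blank wells, after 72 hours of two-drug dosing of cells plated in 1536-well plates.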
# [2] = test system: A101D (Melanoma)
# In short: as §1
# [3] = test system: A253 (Head and Neck Carcinoma)
# In short: as §1
# [4] = test system: CA46 (Burkitt's Lymphoma)
# In short: as §1
# [5] = test system: CAL-27 (Oral Cavity Carcinoma)
# In short: as §1
# [6] = test system: CGTH-W-1 (Thyroid Gland Carcinoma)
# In short: as §1
# [7] = test system: COLO-792 (Melanoma)
# In short: as §1
# [8] = test system: ESO26 (Esophageal Adenocarcinoma)
# In short: as §1
# [9] = test system: EW-7 (Ewing's Sarcoma)
# In short: as §1
# [10] = test system: G-402 (Other Solid Carcinomas)
# In short: as §1
# [11] = test system: HCC1428 (Breast Carcinoma)
# In short: as §1
# [12] = test system: HCC70 (Breast Carcinoma)
# In short: as §1
# [13] = test system: IM-9 (Non-Cancerous)
# In short: as §1
# [14] = test system: JHU-022 (Oral Cavity Carcinoma)
# In short: as §1
# [15] = test system: KP-N-YN (Neuroblastoma)
# In short: as §1
# [16] = test system: LU-165 (Small Cell Lung Carcinoma)
# In short: as §1
# [17] = test system: NCI-H1651 (Lung Adenocarcinoma)
# In short: as §1
# [18] = test system: NCI-H2087 (Lung Adenocarcinoma)
# In short: as §1
# [19] = test system: RH-41 (Rhabdomyosarcoma)
# In short: as §1
# [20] = test system: SK-HEP-1 (Hepatocellular Carcinoma)
# In short: as §1
compound,measurement,setting,value
"Cn1cnc2c(F)c(Nc3ccc(Br)cc3Cl)c(C(=O)NOCCO)cc21 [Selumetinib] + CC(C)n1c(=O)n(C)c2cnc3cc(F)c(-c4ccc(OCCCN5CCCCC5)nc4)cc3c21 [AZD1390] (first compound max 10 µM, 7x7, partner max 0.3 µM)",Bliss excess,[1],-0.0226
same,Bliss excess,[2],-0.0246
same,Bliss excess,[3],-0.0504
same,Bliss excess,[4],-0.006
same,Bliss excess,[5],-0.0489
same,Bliss excess,[6],-0.0388
same,Bliss excess,[7],-0.0088
same,Bliss excess,[8],-0.0471
same,Bliss excess,[9],-0.0117
same,Bliss excess,[10],-0.0095
same,Bliss excess,[11],-0.0333
same,Bliss excess,[12],0.0225
same,Bliss excess,[13],-0.0603
same,Bliss excess,[14],0.02
same,Bliss excess,[15],-0.0171
same,Bliss excess,[16],-0.03
same,Bliss excess,[17],-0.0305
same,Bliss excess,[18],-0.0541
same,Bliss excess,[19],-0.0082
same,Bliss excess,[20],-0.0043
"CC(=O)c1c(C)c2cnc(Nc3ccc(N4CCNCC4)cn3)nc2n(C2CCCC2)c1=O [Palbociclib] + CC1(C)CCC(CN2CCN(c3ccc(C(=O)NS(=O)(=O)c4ccc(NCC5CCOCC5)c([N+](=O)[O-])c4)c(Oc4cnc5[nH]ccc5c4)c3)CC2)=C(c2ccc(Cl)cc2)C1 [Venetoclax] (first compound max 10 µM, 7x7, partner max 1 µM)",Bliss excess,[1],-0.0149
same,Bliss excess,[2],-0.0025
same,Bliss excess,[3],-0.0555
same,Bliss excess,[4],-0.0004
same,Bliss excess,[5],-0.0483
same,Bliss excess,[6],-0.0219
same,Bliss excess,[7],0.0153
same,Bliss excess,[8],-0.0364
same,Bliss excess,[9],0.0071
same,Bliss excess,[10],0.0369
same,Bliss excess,[11],-0.0378
same,Bliss excess,[12],-0.0356
same,Bliss excess,[13],0.0389
same,Bliss excess,[14],-0.0613
same,Bliss excess,[15],-0.0844
same,Bliss excess,[16],-0.0502
same,Bliss excess,[17],-0.038
same,Bliss excess,[18],-0.0596
same,Bliss excess,[19],-0.0019
same,Bliss excess,[20],-0.167
"Cn1cnc2c(F)c(Nc3ccc(Br)cc3Cl)c(C(=O)NOCCO)cc21 [Selumetinib] + C=CCn1c(=O)c2cnc(Nc3ccc(N4CCN(C)CC4)cc3)nc2n1-c1cccc(C(C)(C)O)n1 [AZD1775] (first compound max 10 µM, partner max 1 µM)",Bliss excess,[1],-0.0306
same,Bliss excess,[2],-0.087
same,Bliss excess,[3],-0.0181
same,Bliss excess,[4],-0.0625
same,Bliss excess,[5],0.0384
same,Bliss excess,[6],-0.0427
same,Bliss excess,[7],0.0092
same,Bliss excess,[8],-0.0853
same,Bliss excess,[9],-0.0115
same,Bliss excess,[10],-0.073
same,Bliss excess,[11],-0.0409
same,Bliss excess,[12],0.0361
same,Bliss excess,[13],-0.045
same,Bliss excess,[14],0.0283
same,Bliss excess,[15],-0.0751
same,Bliss excess,[16],-0.0589
same,Bliss excess,[17],-0.0692
same,Bliss excess,[18],0.0084
same,Bliss excess,[19],-0.0189
same,Bliss excess,[20],0.0127
"COc1nnc2ccc(N3CCC(c4ccc(OCCN5CCN(C)C(=O)[C@H]5C)cc4)CC3)nn12 [AZD5153] + C[C@@H]1COCCN1C2=NC(=NC(=C2)C3(CC3)[S@](=N)(=O)C)C4=C5C=CNC5=NC=C4 [AZD6738] (first compound max 1 µM, 7x7, partner max 10 µM)",Bliss excess,[1],-0.0001
same,Bliss excess,[2],-0.0186
same,Bliss excess,[3],0.0315
same,Bliss excess,[4],-0.0051
same,Bliss excess,[5],0.0095
same,Bliss excess,[6],0.0604
same,Bliss excess,[7],0.0774
same,Bliss excess,[8],0.0343
same,Bliss excess,[9],0.034
same,Bliss excess,[10],0.0025
same,Bliss excess,[11],0.0209
same,Bliss excess,[12],0.015
same,Bliss excess,[13],-0.0697
same,Bliss excess,[14],-0.0134
same,Bliss excess,[15],-0.0174
same,Bliss excess,[16],-0.0048
same,Bliss excess,[17],0.0178
same,Bliss excess,[18],0.0404
same,Bliss excess,[19],0.0514
same,Bliss excess,[20],-0.0522
"NC1(C(=O)N[C@@H](CCO)c2ccc(Cl)cc2)CCN(c2ncnc3[nH]ccc23)CC1 [Capivasertib] + C[C@@H]1COCCN1C2=NC(=NC(=C2)C3(CC3)[S@](=N)(=O)C)C4=C5C=CNC5=NC=C4 [AZD6738] (first compound max 10 µM, 7x7, partner max 10 µM)",Bliss excess,[1],-0.0846
same,Bliss excess,[2],-0.107
same,Bliss excess,[3],-0.0163
same,Bliss excess,[4],0.0324
same,Bliss excess,[5],-0.0792
same,Bliss excess,[6],-0.0508
same,Bliss excess,[7],0.0487
same,Bliss excess,[8],-0.0364
same,Bliss excess,[9],0.0021
same,Bliss excess,[10],-0.017
same,Bliss excess,[11],-0.0066
same,Bliss excess,[12],-0.0586
same,Bliss excess,[13],-0.0514
same,Bliss excess,[14],-0.041
same,Bliss excess,[15],-0.0395
same,Bliss excess,[16],-0.01
same,Bliss excess,[17],-0.0528
same,Bliss excess,[18],-0.0071
same,Bliss excess,[19],-0.0389
same,Bliss excess,[20],-0.0744
"C=CCn1c(=O)c2cnc(Nc3ccc(N4CCN(C)CC4)cc3)nc2n1-c1cccc(C(C)(C)O)n1 [AZD1775] + O=C(c1cc(Cc2n[nH]c(=O)c3ccccc23)ccc1F)N1CCN(C(=O)C2CC2)CC1 [Olaparib] (first compound max 1 µM, partner max 10 µM)",Bliss excess,[1],-0.0551
same,Bliss excess,[2],-0.0542
same,Bliss excess,[3],0.0364
same,Bliss excess,[4],-0.0612
same,Bliss excess,[5],-0.0431
same,Bliss excess,[6],-0.0222
same,Bliss excess,[7],-0.0241
same,Bliss excess,[8],-0.0518
same,Bliss excess,[9],-0.0704
same,Bliss excess,[10],-0.0761
same,Bliss excess,[11],-0.0279
same,Bliss excess,[12],-0.0479
same,Bliss excess,[13],-0.0305
same,Bliss excess,[14],-0.0257
same,Bliss excess,[15],-0.144
same,Bliss excess,[16],-0.103
same,Bliss excess,[17],-0.0869
same,Bliss excess,[18],-0.0212
same,Bliss excess,[19],-0.0484
